Publication PMC10022191, “Safety, tolerability, pharmacokinetics, and antiviral activity of the novel core protein allosteric modulator ZM-H1505R (Canocapavir) in chronic hepatitis B patients: a randomized multiple-dose escalation trial” (BMC Medicine, 2023)

Assay: phase 1b trial: adverse reactions and tolerability in CHB patients
Format: in vivo, human
Conditions: 28 days
Description: This was a randomized, open-label, placebo-controlled, phase 1b study (Clinical Trial Registration Number: NCT05470829; Chinese Clinical Trial Registration Number: CTR20210686), which was conducted at the Phase I Clinical Research Center, The First Hospital of Jilin University (Jilin, China), during the period from May to November of 2021. In order to minimize the safety risk of Canocapavir, an adaptive ascending dosing strategy was adopted for Canocapavir treatment in this study. The second and third assigned doses were initiated only after the safety data from the previous dose was reviewed and determined to be safe by the Principal Investigator and the Sponsor on day 8 postdosing (post drug administration days). Canocapavir was administered at the Clinical Research Center on days 1–8 and day 28 and at home on days 9–27 under the same conditions (fixed administration time and fasting condition). Patients were required to visit the facility for follow-up on days 15, 22, 27, 43 ± 1, and 57 ± 2 postdosing. The study protocol and informed consent forms were prepared according to the principles of the Declaration of Helsinki. The study protocol was approved by the Institutional Review Board of the First Hospital of Jilin University (approval number: 20Y201-006). All recruited patients provided written informed consent before participating in any study-related procedures.
A total of 30 CHB patients were recruited in this study and were randomly assigned into three cohorts (N = 10, each). In these three cohorts, the patients (in a ratio of 4:1) received 50, 100, or 200 mg of Canocapavir or placebo once a day for 28 consecutive days under fasting conditions, followed by a 28-day follow-up (Fig. 1). The patients, care providers, and those assessing outcomes were blinded during the study. This random process was completed in an electronic data capture system, and the details are shown in Additional file 1.
To examine possible adverse events (AEs) and adverse reactions (an adverse event is definitely, probably, or possibly related to the drug) in this study, the recruited patients underwent regular clinical laboratory testing, 12-lead electrocardiograms, examination of vital signs, abdominal ultrasound, and regular physical examinations, using the baseline data as a control. The severity of AEs and laboratory abnormalities were graded according to the Common Terminology Criteria for Adverse Events (CTCAE), version 5.0, which defines toxicity criteria. The AEs were coded using the Medical Dictionary for Regulatory Activities, version 24.1 (McLean, VA, USA).

O=C1CO[C@H](c2cn(-c3ccc(Br)cc3)nc2-c2ccc(F)cc2)N1CCc1ccc2[nH]c(=O)[nH]c2c1 [Canocapavir]
Adverse reactions, grade I, number of subjects (50 mg q.d.): 2 n
Adverse reactions, grade I, percent of subjects (50 mg q.d.): 25.00%
Adverse reactions, grade II, number of subjects (50 mg q.d.): 0 n
Adverse reactions, grade II, percent of subjects (50 mg q.d.): 0%
Adverse reactions, grade III, number of subjects (50 mg q.d.): 1 n
Adverse reactions, grade III, percent of subjects (50 mg q.d.): 12.50%
Adverse reactions, total (all grades), number of subjects (50 mg q.d.): 3 n
Adverse reactions, total (all grades), percent of subjects (50 mg q.d.): 37.5%
Decreased neutrophil count, cases (50 mg q.d.): 1 case
Decreased neutrophil count, grade II, number of subjects (50 mg q.d.): 0 n
Decreased neutrophil count, grade II, percent of subjects (50 mg q.d.): 0%
Decreased neutrophil count, grade III, percent of subjects (50 mg q.d.): 12.50%
Decreased neutrophil count, number of subjects (%) (50 mg q.d.): 1 (12.5) n (%)
Decreased platelet count, cases (50 mg q.d.): 0 case
Decreased platelet count, grade I, number of subjects (50 mg q.d.): 0 n
Decreased platelet count, grade I, percent of subjects (50 mg q.d.): 0%
Decreased platelet count, number of subjects (%) (50 mg q.d.): 0 (0) n (%)
Decreased serum phosphorus, cases (50 mg q.d.): 0 case
Decreased serum phosphorus, grade I, number of subjects (50 mg q.d.): 0 n
Decreased serum phosphorus, grade I, percent of subjects (50 mg q.d.): 0%
Decreased serum phosphorus, number of subjects (%) (50 mg q.d.): 0 (0) n (%)
Decreased white blood cell count, cases (50 mg q.d.): 1 case
Decreased white blood cell count, grade II, percent of subjects (50 mg q.d.): 12.50%
Decreased white blood cell count, number of subjects (%) (50 mg q.d.): 1 (12.5) n (%)
Hypertriglyceridemia, cases (50 mg q.d.): 0 case
Hypertriglyceridemia, grade III, number of subjects (50 mg q.d.): 0 n
Hypertriglyceridemia, grade III, percent of subjects (50 mg q.d.): 0%
Hypertriglyceridemia, number of subjects (%) (50 mg q.d.): 0 (0) n (%)
Increased alanine aminotransferase, cases (50 mg q.d.): 2 case
Increased alanine aminotransferase, grade I, number of subjects (50 mg q.d.): 2 n
Increased alanine aminotransferase, grade I, percent of subjects (50 mg q.d.): 25.00%
Increased alanine aminotransferase, grade II, number of subjects (50 mg q.d.): 0 n
Increased alanine aminotransferase, grade II, percent of subjects (50 mg q.d.): 0%
Increased alanine aminotransferase, number of subjects (%) (50 mg q.d.): 2 (25) n (%)
Increased aspartate aminotransferase, cases (50 mg q.d.): 1 case
Increased aspartate aminotransferase, grade I, number of subjects (50 mg q.d.): 1 n
Increased aspartate aminotransferase, grade I, percent of subjects (50 mg q.d.): 12.50%
Increased aspartate aminotransferase, grade II, number of subjects (50 mg q.d.): 0 n
Increased aspartate aminotransferase, grade II, percent of subjects (50 mg q.d.): 0%
Increased aspartate aminotransferase, number of subjects (%) (50 mg q.d.): 1 (12.5) n (%)
Increased bilirubin, cases (50 mg q.d.): 0 case
Increased bilirubin, grade I, number of subjects (50 mg q.d.): 0 n
Increased bilirubin, grade I, percent of subjects (50 mg q.d.): 0%
Increased bilirubin, number of subjects (%) (50 mg q.d.): 0 (0) n (%)
Increased creatinine, cases (50 mg q.d.): 1 case
Increased creatinine, grade I, number of subjects (50 mg q.d.): 1 n
Increased creatinine, grade I, percent of subjects (50 mg q.d.): 12.50%
Increased creatinine, number of subjects (%) (50 mg q.d.): 1 (12.5) n (%)
Increased γ-glutamyltransferase, cases (50 mg q.d.): 0 case
Increased γ-glutamyltransferase, grade I, number of subjects (50 mg q.d.): 0 n
Increased γ-glutamyltransferase, grade I, percent of subjects (50 mg q.d.): 0%
Increased γ-glutamyltransferase, number of subjects (%) (50 mg q.d.): 0 (0) n (%)
Rash, cases (50 mg q.d.): 0 case
Rash, grade I, number of subjects (50 mg q.d.): 0 n
Rash, grade I, percent of subjects (50 mg q.d.): 0%
Rash, number of subjects (%) (50 mg q.d.): 0 (0) n (%)
Total adverse reactions, cases (50 mg q.d.): 6 case
Total adverse reactions, number of subjects (%) (50 mg q.d.): 3 (37.5) n (%)
Adverse reactions, grade I, number of subjects (100 mg q.d.): 4 n
Adverse reactions, grade I, percent of subjects (100 mg q.d.): 50.00%
Adverse reactions, grade II, number of subjects (100 mg q.d.): 1 n
Adverse reactions, grade II, percent of subjects (100 mg q.d.): 12.50%
Adverse reactions, grade III, number of subjects (100 mg q.d.): 0 n
Adverse reactions, grade III, percent of subjects (100 mg q.d.): 0%
Adverse reactions, total (all grades), number of subjects (100 mg q.d.): 5 n
Adverse reactions, total (all grades), percent of subjects (100 mg q.d.): 62.5%
Decreased neutrophil count, cases (100 mg q.d.): 1 case
Decreased neutrophil count, grade II, percent of subjects (100 mg q.d.): 12.50%
Decreased neutrophil count, grade III, number of subjects (100 mg q.d.): 0 n
Decreased neutrophil count, grade III, percent of subjects (100 mg q.d.): 0%
Decreased neutrophil count, number of subjects (%) (100 mg q.d.): 1 (12.5) n (%)
Decreased platelet count, cases (100 mg q.d.): 1 case
Decreased platelet count, grade I, number of subjects (100 mg q.d.): 1 n
Decreased platelet count, grade I, percent of subjects (100 mg q.d.): 12.50%
Decreased platelet count, number of subjects (%) (100 mg q.d.): 1 (12.5) n (%)
Decreased serum phosphorus, cases (100 mg q.d.): 0 case
Decreased serum phosphorus, grade I, number of subjects (100 mg q.d.): 0 n
Decreased serum phosphorus, grade I, percent of subjects (100 mg q.d.): 0%
Decreased serum phosphorus, number of subjects (%) (100 mg q.d.): 0 (0) n (%)
Decreased white blood cell count, cases (100 mg q.d.): 1 case
Decreased white blood cell count, grade II, percent of subjects (100 mg q.d.): 12.50%
Decreased white blood cell count, number of subjects (%) (100 mg q.d.): 1 (12.5) n (%)
Hypertriglyceridemia, cases (100 mg q.d.): 0 case
Hypertriglyceridemia, grade III, number of subjects (100 mg q.d.): 0 n
Hypertriglyceridemia, grade III, percent of subjects (100 mg q.d.): 0%
Hypertriglyceridemia, number of subjects (%) (100 mg q.d.): 0 (0) n (%)
Increased alanine aminotransferase, cases (100 mg q.d.): 3 case
Increased alanine aminotransferase, grade I, number of subjects (100 mg q.d.): 3 n
Increased alanine aminotransferase, grade I, percent of subjects (100 mg q.d.): 37.50%
Increased alanine aminotransferase, grade II, number of subjects (100 mg q.d.): 0 n
Increased alanine aminotransferase, grade II, percent of subjects (100 mg q.d.): 0%
Increased alanine aminotransferase, number of subjects (%) (100 mg q.d.): 3 (37.5) n (%)
